The values that follow come from patent publication US20210115104A1, “AMYLIN ANALOGUES” (Zealand Pharma A/S, priority 2015, published 2021).

The nature of data set [1]: Assessment of chemical stability (RP-HPLC normalized purity). It counts as physicochemical. To be noted: 7 days, 40° C., Table 1; for Normalized purity after 7 days, 40° C., pH 4: pH 4, 0.2 mg/ml; for Normalized purity after 7 days, 40° C., pH 6: pH 6, 0.2 mg/ml; for Normalized purity after 7 days, 40° C., pH 7.5: pH 7.5, 0.2 mg/ml; for Normalized purity after 7 days, 40° C., pH 9: pH 9, 0.2 mg/ml. In a few lines:
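Peptides at 0.2 mg/ml in water adjusted to pH 4, 6, 7.5 or 9, incubated at 40° C for 7 days. Main-peak area-% by RP-HPLC (C8 ammonium formate or C18 TFA gradient, UV 220 nm), normalized to T=0 as 100.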

Data set [2] can be described thus: Assessment of physical stability (Thioflavin T fibrillation). The conditions noted are these: 1 mg/ml, 40° C., ThT; for Fibrillation pH 4.0 (Ac): 50 mM acetate buffer pH 4.0, 96 hours; for Fibrillation pH 7.0 (His): 50 mM histidine buffer pH 7.0, 96 hours; for Fibrillation pH 7.0 (Phos.): 50 mM phosphate buffer pH 7.0, 96 hours. Also on record: key: FND = fibrillation not detected; FD = fibrillation detected. It counts as physicochemical. Summed up: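 1 mg/ml peptide with 40 μM ThT in 50 mM phosphate pH 7.0, 50 mM histidine pH 7.0 or 50 mM acetate pH 4.0, in triplicate. Fluorescence read every 10 min after 300 s agitation over 96 h at 40 °C. Lag-time (h) is the intersection of linear fits to stable and growth phases.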

The target in data set [3] is T1, human calcitonin receptor (hCTR2) (Homo sapiens, UniProt P30988).
T1 construct: expressed in transfected cells
T1 sequence (P30988 25-474): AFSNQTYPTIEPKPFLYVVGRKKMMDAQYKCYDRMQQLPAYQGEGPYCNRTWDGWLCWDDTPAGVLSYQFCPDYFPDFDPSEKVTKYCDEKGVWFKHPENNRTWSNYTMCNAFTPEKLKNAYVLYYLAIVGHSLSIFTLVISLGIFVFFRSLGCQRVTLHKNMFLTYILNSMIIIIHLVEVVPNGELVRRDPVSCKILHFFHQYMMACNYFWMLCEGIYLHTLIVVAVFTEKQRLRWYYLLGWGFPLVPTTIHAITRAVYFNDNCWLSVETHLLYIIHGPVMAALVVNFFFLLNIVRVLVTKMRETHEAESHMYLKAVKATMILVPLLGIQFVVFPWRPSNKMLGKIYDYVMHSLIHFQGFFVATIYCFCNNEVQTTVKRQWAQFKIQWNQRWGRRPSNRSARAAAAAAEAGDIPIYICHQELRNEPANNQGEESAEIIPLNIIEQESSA
The data set can be described thus: hCTR2 cAMP assay (AlphaScreen) in COS7 cells. It counts as cell-based. The conditions noted are these: cAMP induction, COS7 cells expressing hCTR2; Table 1; read-out: hCTR2 EC50. An excerpt:
The cell line COS7, originating from African Green Monkey kidney fibroblast cells, was used for establishment of the stable cell lines described below. The COS7 cellular background was used due to it being RAMP naïve, and as such it provides the best available system for testing of the monomeric hCTR and different heterodimeric amylin receptor subtypes functionally generated by introduction of the individual RAMPs.
A cell line expressing the human calcitonin receptor (hCTR2) was generated in the COS7 cellular background as stable clones. In brief, hCTR2 (GI: 4502547) was amplified by PCR using primers encoding terminal restriction sites for subcloning. The 5′-end primers additionally encoded a near Kozak consensus sequence to ensure efficient translation. The fidelity of the DNA encoding the receptor was confirmed by DNA sequencing. The PCR products encoding the receptor were subcloned into a mammalian expression vector containing a neomycin (G418) resistance marker. The mammalian expression vector encoding the receptor was transfected into COS7 cells by a standard liposome transfection method. 48 hours post-transfection, cells were seeded for limited dilution cloning and selected with 1 mg/ml G418 in the culture medium. After 3 weeks, surviving colonies of hCTR2-expressing cells were picked, propagated and tested in the amylin efficacy assay as described in Example 3 below. One hCTR2-expressing clone was chosen for compound profiling.
In vitro activity of test peptides at the hCTR2 and hAMYR3 receptors was assessed by measuring the induction of cAMP following stimulation of the receptor using the AlphaScreen® cAMP Assay kit from Perkin-Elmer.
Briefly, COS7 cells expressing hCTR2 (see Example 2, above) were seeded at 30-40,000 cells per well in 96-well microtiter plates coated with 0.01% poly-L-lysine, and grown for 1 day in culture in 100 μl growth medium [DMEM, 10% FCS, Penicillin (100 IU/ml), Streptomycin (100 μg/ml)]. On the day of analysis, growth medium was removed and the cells were washed once with 200 μl Tyrode buffer [Tyrode's Salts (9.6 g/I), 10 mM HEPES, pH 7.4]. Cells were incubated in 100 μl Tyrode buffer containing increasing concentrations of test peptides, 100 µM IBMX and 0.1% casein for 15 min at 37° C. The reaction was stopped by carefully decanting off the compound/buffer medium and replacing it with lysis/detection buffer (80 μl 0.1% w/v BSA, 5 mM HEPES, 0.3% v/v Tween-20 in deionized water). After incubation at room temperature for 10 min., the cAMP content of the resulting cell lysate was estimated according to the AlphaScreen® cAMP Assay manufacturer's instructions. EC50 values were estimated by computer-aided curve fitting using the 4-parameter logistic (4PL) non-linear model.
(In general: Changes in cAMP serve as a functional read-out for many G protein-coupled receptors.)

Broadly, the EC50 is the concentration giving half of the maximal effect.

Molecules are shown by their SMILES. *1 amine or outer side, *2 acyl side, *3 side chain or, on linkers, in order; H or OH if unused. Where a SMILES comes first, the peptide text is derived from it. Bridges are numbered along the chain shown (N, C = ends). [ ]: non-standard residue; d: D form. The star is where a group is joined. C20 diacid = O=C(O)CCCCCCCCCCCCCCCCCCC(=O)*; γGlu = O=C(O)[C@H](CCC(=O)[*:2])N[*:1]; Hyp = O=C(O)[C@@H]1C[C@@H](O)CN1; NMeI = CC[C@H](C)[C@H](NC)C(=O)O; Sar = CNCC(=O)O

Consider `CC[C@H](C)[C@@H](C(=O)N[C@@H](CC(C)C)C(=O)N[C@@H](CO)C(=O)N[C@@H](CO)C(=O)N[C@H](C(=O)N[C@@H](CCC(=O)O)C(=O)N[C@H](C(=O)NCC(=O)N[C@@H](CO)C(=O)N[C@@H](CC(N)=O)C(=O)N[C@H](C(=O)N1C[C@H](O)C[C@H]1C(N)=O)[C@@H](C)O)C(C)C)[C@@H](C)O)N(C)C(=O)[C@H](C)NC(=O)CN(C)C(=O)[C@H](Cc1ccccc1)NC(=O)[C@H](CCCNC(=N)N)NC(=O)[C@H](CCC(N)=O)NC(=O)[C@H](CC(C)C)NC(=O)[C@H](Cc1ccccc1)NC(=O)[C@H](Cc1c[nH]cn1)NC(=O)[C@H](C)NC(=O)[C@H](CC(C)C)NC(=O)[C@H](CCCNC(=N)N)NC(=O)[C@H](CCC(=O)O)NC(=O)[C@@H](NC(=O)[C@H](C)NC(=O)[C@@H]1CSSC[C@H](NC(=O)[C@H](CCCNC(=N)N)NC(=O)CC[C@H](NC(=O)CCCCCCCCCCCCCCCCCCC(=O)O)C(=O)O)C(=O)NCC(=O)N[C@@H]([C@@H](C)O)C(=O)N[C@@H](C)C(=O)N[C@@H]([C@@H](C)O)C(=O)N1)[C@@H](C)O` [Compound 77, [19CD]-isoGlu-R-C( )-GTAT-C( )-ATERLAHFLQRF-Gly(Me)-A-Ile(Me)-LSSTEVGSNT-Hyp-NH2] ({C20 diacid-γGlu}-RCGTATCATERLAHFLQRF[Sar]A[NMeI]LSSTEVGSNT[Hyp]-NH2; disulfide 2-7), for which, in data set [1], the “Normalized purity after 7 days, 40° C., pH 4” value (“Normalized purity … pH 4” below) is on record as “A (A = >90%)”; the “Normalized purity after 7 days, 40° C., pH 6” value (“Normalized purity … pH 6” below) is listed as “A (A = >90%)”; the “Normalized purity after 7 days, 40° C., pH 7.5” value (“Normalized purity … pH 7.5” below) was “B (B = 70-90%)”; the “Normalized purity after 7 days, 40° C., pH 9” value (from here on “Normalized purity … pH 9”) is given as “B (B = 70-90%)”. Besides, in data set [2], the “Fibrillation pH 4.0 (Ac)” value is recorded as “FND”, the “Fibrillation pH 7.0 (His)” value is listed as “FND” and the “Fibrillation pH 7.0 (Phos.)” value is on record as “FND”. Further, in data set [3], the concentration giving a half-maximal response (EC50) was determined as 0.16 nM.

For the compound `CC[C@H](C)[C@@H](C(=O)N[C@@H](CC(C)C)C(=O)N[C@@H](CO)C(=O)N[C@@H](CO)C(=O)N[C@H](C(=O)N[C@@H](CCC(=O)O)C(=O)N[C@H](C(=O)NCC(=O)N[C@@H](CO)C(=O)NCC(=O)N[C@H](C(=O)N1C[C@H](O)C[C@H]1C(N)=O)[C@@H](C)O)C(C)C)[C@@H](C)O)N(C)C(=O)[C@H](C)NC(=O)CN(C)C(=O)[C@H](Cc1ccccc1)NC(=O)[C@H](CO)NC(=O)[C@H](CO)NC(=O)[C@H](CCCNC(=N)N)NC(=O)[C@H](CCC(N)=O)NC(=O)[C@H](CC(C)C)NC(=O)[C@H](Cc1ccccc1)NC(=O)[C@H](Cc1c[nH]cn1)NC(=O)[C@H](C)NC(=O)[C@H](CC(C)C)NC(=O)[C@H](CCCNC(=N)N)NC(=O)[C@H](CCC(=O)O)NC(=O)[C@@H](NC(=O)[C@H](C)NC(=O)[C@@H]1CSSC[C@H](NC(=O)[C@H](CCCNC(=N)N)NC(=O)CC[C@H](NC(=O)CCCCCCCCCCCCCCCCCCC(=O)O)C(=O)O)C(=O)N[C@@H](CCC(N)=O)C(=O)N[C@@H]([C@@H](C)O)C(=O)N[C@@H](C)C(=O)N[C@@H]([C@@H](C)O)C(=O)N1)[C@@H](C)O` [Compound 90, [19CD]-isoGlu-R-C( )-QTAT-C( )-ATERLAHFLQRSSF-Gly(Me)-A-Ile(Me)-LSSTEVGSGT-Hyp-NH2] ({C20 diacid-γGlu}-RCQTATCATERLAHFLQRSSF[Sar]A[NMeI]LSSTEVGSGT[Hyp]-NH2; disulfide 2-7), in data set [1], the “Normalized purity … pH 4” value is “A (A = >90%)”; the “Normalized purity … pH 6” value is “A (A = >90%)”; the “Normalized purity … pH 7.5” value is reported as “A (A = >90%)”; the “Normalized purity … pH 9” value is recorded as “A (A = >90%)”. In data set [2], the “Fibrillation pH 4.0 (Ac)” value is on record as “FND”, the “Fibrillation pH 7.0 (His)” value is “FND” and the “Fibrillation pH 7.0 (Phos.)” value is “FND”. In addition, in data set [3], the EC50 was 0.2 nM.

As for `CC[C@H](C)[C@@H](C(=O)N[C@@H](CC(C)C)C(=O)N[C@@H](CO)C(=O)N[C@@H](CO)C(=O)N[C@H](C(=O)N[C@@H](CCC(=O)O)C(=O)N[C@H](C(=O)NCC(=O)N[C@@H](CO)C(=O)N[C@@H](CC(N)=O)C(=O)N[C@H](C(=O)N1CCC[C@H]1C(N)=O)[C@@H](C)O)C(C)C)[C@@H](C)O)N(C)C(=O)[C@H](C)NC(=O)CN(C)C(=O)[C@H](Cc1ccccc1)NC(=O)[C@H](CO)NC(=O)[C@H](CO)NC(=O)[C@H](CCCNC(=N)N)NC(=O)[C@H](Cc1c[nH]cn1)NC(=O)[C@H](CC(C)C)NC(=O)[C@H](Cc1ccccc1)NC(=O)[C@H](Cc1c[nH]cn1)NC(=O)[C@H](C)NC(=O)[C@H](CC(C)C)NC(=O)[C@H](CCCNC(=N)N)NC(=O)[C@H](CCC(N)=O)NC(=O)[C@@H](NC(=O)[C@H](C)NC(=O)[C@@H]1CSSC[C@H](NC(=O)[C@H](CCCNC(=N)N)NC(=O)CC[C@H](NC(=O)CCCCCCCCCCCCCCCCCCC(=O)O)C(=O)O)C(=O)N[C@@H](CC(N)=O)C(=O)N[C@@H]([C@@H](C)O)C(=O)N[C@@H](C)C(=O)N[C@@H]([C@@H](C)O)C(=O)N1)[C@@H](C)O` [Compound 16, [19CD]-isoGlu-R-C( )-NTAT-C( )-ATQRLAHFLHRSSF-Gly(Me)-A-Ile(Me)-LSSTEVGSNTP-NH2] ({C20 diacid-γGlu}-RCNTATCATQRLAHFLHRSSF[Sar]A[NMeI]LSSTEVGSNTP-NH2; disulfide 2-7), in data set [1], the “Normalized purity … pH 4” value is recorded as “A (A = >90%)”; the “Normalized purity … pH 6” value is reported as “A (A = >90%)”; the “Normalized purity … pH 7.5” value is “A (A = >90%)”; the “Normalized purity … pH 9” value is listed as “B (B = 70-90%)”. In data set [2], the “Fibrillation pH 4.0 (Ac)” value was “FD”, the “Fibrillation pH 7.0 (His)” value was “FD” and the “Fibrillation pH 7.0 (Phos.)” value was “FND”. Further, the EC50 in data set [3] came out at 0.073 nM.
